Format in all cases: in vivo
The test system of one assay is Nilaparvata lugens. The assay is described as follows: Test Example 7: foot drench of rice seedling, thirty first instar larvae of Nilaparvata lugens. The conditions noted are these: soil, 144 h, 5 ml drench at foot of rice seedling, kept 7 days, thirty first instar larvae released, further 6 days. As for the experimental part:
The formulations of the present active compounds (11), (13) to (15), (17), (23), (26), (35) to (41), (43) to (45), (48) to (51), (54), (55), (209), (211) and (212) obtained by Formulation Example 5 were diluted with water so that the active ingredient concentration was 500 ppm, to prepare diluted solutions for test. Separately, a rice seedling (2 weeks after sowing, second leaf spreading stage) planted on a plastic cup was drenched at its foot with each 5 ml of the diluted solutions, and kept in a greenhouse of 25° C. for 7 days. Thirty first instar larvae of Nilaparvata lugens were released, and further kept in the greenhouse for 6 days. The number of insect of living Nilaparvata lugens […] on rice was checked, and the control value was calculated according to the following formula. Control value (%)={1-(Cb×Tai)/(Cai×Tb)}×100 Letters in the formula represent the following meanings. Cb: the number of insect before treatment on non-treated district Cai: the number of insect in observation on non-treated district Tb: the number of insect before treatment on treated district Tai: the number of insect in observation on treated district

Assay [1] deals with Aphis gossypii. The assay is described as follows: Test Example 2: foot drench of cucumber seedling on urethane mat, Aphis gossypii. As to conditions: soil, 168 h, 5 ml drench at foot of cucumber seedling on urethane mat, inoculated one day after treatment, checked seven days after. The protocol:
The formulations of the present active compounds (4), (5), (8), (9), (11), (12), (14), (15), (17), (20), (35) to (45), (48) to (51), (54) to (56), (206), (209) and (211) to (213) obtained by Formulation Example 5 were diluted with water so that the active ingredient concentration was 500 ppm, to prepare diluted solutions for test. Separately, a cucumber seedling (second true leaf spreading stage) planted on a urethane mat was drenched at its foot with each 5 ml of the diluted solutions, and one day after treatment, the cucumber leaf surface was inoculated with 30 Aphis gossypii (whole stage). Further seven days after, the number of insect of living Aphis gossypii […] on the leaves of this cucumber was checked, and the control value was calculated according to the following formula. Control value (%)={1-(Cb×Tai)/(Cai×Tb)}×100 Letters in the formula represent the following meanings. Cb: the number of insect before treatment on non-treated district Cai: the number of insect in observation on non-treated district Tb: the number of insect before treatment on treated district Tai: the number of insect in observation on treated district

Assay [2] has as its system Aphis gossypii. The assay is described as follows: Test Example 4: foot drench of cucumber seedling in plastic cup, inoculation after 7 days, Aphis gossypii. The conditions noted are these: soil, 144 h, 5 ml drench at foot of cucumber seedling in plastic cup, kept 7 days at 25° C., inoculated, further 6 days. The protocol:
The formulations of the present active compounds (3) to (7), (17), (19), (20), (22), (29) to (31), (35) to (37), (39), (41) to (45), (47) to (56), (101), (106), (121) to (123), (128), (131), (137), (139), (143), (145), (147), (211) to (213), (216) and (217) obtained by Formulation Example 5 were diluted with water so that the active ingredient concentration was 500 ppm, to prepare diluted solutions for test. Separately, a cucumber seedling (second true leaf spreading stage) planted on a plastic cup was drenched at its foot with each 5 ml of the diluted solutions, and kept in a greenhouse of 25° C. for 7 days. The cucumber leaf surface was inoculated with 30 Aphis gossypii (whole stage), and further kept in the greenhouse for 6 days, then, the number of insect of living Aphis gossypii […] on the leaves of this cucumber was checked, and the control value was calculated according to the following formula. Control value (%)={1-(Cb×Tai)/(Cai×Tb)}×100 Letters in the formula represent the following meanings. Cb: the number of insect before treatment on non-treated district Cai: the number of insect in observation on non-treated district Tb: the number of insect before treatment on treated district Tai: the number of insect in observation on treated district

The subject of another assay is Bemisia tabaci. The assay is described as follows: Test Example 5: spray on tomato seedling with Bemisia tabaci larvae. The conditions noted are these: 168 h, 10 ml/cup sprayed on tomato seedling with hatching Bemisia tabaci larvae, 7 days at 25° C. The protocol: The formulations of the present active compounds (1) to (5), (7) to (15), (17) to (21), (25), (28) to (45), (48) to (56), (101) to (103), (106), (107), (117), (118), (121) to (145), (147) to (151), (153) to (155), (204), (206), (208), (209), (211) to (213) and (216) to (221) obtained by Formulation Example 5 were diluted with water so that the active ingredient concentration was 500 ppm, to prepare spray solutions for test. Separately, on a tomato seedling planted on a plastic cup, Bemisia tabaci adult insects were released and allowed to lay eggs for about 24 hours. The tomato seedling was kept in a greenhouse […], and the above-described spray solutions for test were sprayed at a proportion of 10 ml/cup on the condition of hatching of larvae from the laid eggs, and kept in a greenhouse of 25° C. for 7 days. The number of living larvae on the tomato leaves was checked, and the control value was calculated according to the following formula. Control value (%)={1−(Cb×Tai)/(Cai×Tb)}×100 Letters in the formula represent the following meanings. Cb: the number of insect before treatment on non-treated district Cai: the number of insect in observation on non-treated district Tb: the number of insect before treatment on treated district Tai: the number of insect in observation on treated district

Assay [3] relates to Aphis gossypii. In words: Test Example 3: root immersion of cucumber seedling, Aphis gossypii. The conditions noted are these: 168 h, cucumber root part immersed in 5 ml, inoculated one day after treatment, checked seven days after. The protocol: The formulations of the present active compounds (18), (19), (21), (22), (24), (25), (28), (31) to (34), (46), (47), (52), (53), (101) to (104), (106) to (108), (112) to (114), (117), (118), (122), (123), (126), (128), (129), (133), (134), (138), (144), (153) to (155) and (157) obtained by Formulation Example 5 were diluted with water so that the active ingredient concentration was 500 ppm, to prepare diluted solutions for test. A root part of a cucumber seedling (first true leaf spreading stage) from which soil had been washed off was immersed in 5 ml of this diluted solution, and one day after treatment, the cucumber leaf surface was inoculated with 30 Aphis gossypii (whole stage). Further seven days after, the number of insect of living Aphis gossypii […] on the leaves of this cucumber was checked, and the control value was calculated according to the following formula. Control value (%)={1-(Cb×Tai)/(Cai×Tb)}×100 Letters in the formula represent the following meanings. Cb: the number of insect before treatment on non-treated district Cai: the number of insect in observation on non-treated district Tb: the number of insect before treatment on treated district Tai: the number of insect in observation on treated district

In patent US8461181B2, “Fused heterocyclic compound and use thereof” (Sumitomo Chemical Company, Ltd., priority 2009, dated 2013) one finds pest or weed control data, which are given here for 14 molecules.

In general, pest or weed control refers to how far the test organism was held down.

SMILES strings stand for the structures.

As to `CC(C)Oc1cnccc1-c1nc2cc(C(F)(F)F)ccc2n1C` [present active compound 11, 2-(3-isopropoxypyridin-4-yl)-1-methyl-5-trifluoromethyl-1H-benzimidazole], the pest or weed control at 500 ppm in the assay on Nilaparvata lugens and in the assay with Aphis gossypii [1] was at least 90% in each case.

In the assay with Aphis gossypii [1], `Cn1c(-c2ccncc2OCCF)nc2cc(C(F)(F)F)ccc21` [present active compound 15, 2-[3-(2-fluoroethoxy)-pyridin-4-yl]-1-methyl-5-trifluoromethyl-1H-benzimidazole] registered a pest or weed control at 500 ppm of at least 90%.

On to `CSc1cnccc1-c1nc2cc(C(F)(F)F)ccc2n1C` [present active compound 17, 1-methyl-2-(3-methylthiopyridin-4-yl)-5-trifluoromethyl-1H-benzimidazole], for which the pest or weed control at 500 ppm in the assay on Nilaparvata lugens, in the assay on Aphis gossypii [1] and in the assay with Aphis gossypii [2] was at least 90% in each case.

As to `CCSc1cnccc1-c1nc2cc(C(F)(F)F)ccc2n1C` [present active compound 20, 2-(3-ethylthiopyridin-4-yl)-1-methyl-5-trifluoromethyl-1H-benzimidazole], the pest or weed control at 500 ppm with Aphis gossypii [1] and in the assay with Aphis gossypii [2] was at least 90% throughout.

Turning to `CC(C)Sc1cnccc1-c1nc2cc(C(F)(F)F)ccc2n1C` [present active compound 23, 2-(3-isopropylthiopyridin-4-yl)-1-methyl-5-trifluoromethyl-1H-benzimidazole], the pest or weed control at 500 ppm in the assay with Nilaparvata lugens was at least 90%.

Regarding `Cn1c(-c2ccnc(F)c2)nc2cc(C(F)(F)F)ccc21` [present active compound 26, 2-(2-fluoropyridin-4-yl)-1-methyl-5-trifluoromethyl-1H-benzimidazole], the pest or weed control at 500 ppm in the assay with Nilaparvata lugens is at least 90%.

On to `Cn1c(-c2ccncc2SCC(F)(F)F)nc2cc(C(F)(F)F)cnc21` [present active compound 54, 3-methyl-2-[3-(2,2,2-trifluoroethylthio)pyridin-4-yl]-6-trifluoromethyl-3H-imidazo[4,5-b]pyridine], for which the pest or weed control at 500 ppm with Nilaparvata lugens is at least 90%.

On to `Cn1c(-c2cc[n+]([O-])cc2)nc2cc(C(F)(F)F)cnc21` [present active compound 55, 3-methyl-2-(1-oxypyridin-4-yl)-6-trifluoromethyl-3H-imidazo[4,5-b]pyridine], for which, in the assay with Nilaparvata lugens, the pest or weed control at 500 ppm was at least 90%.

`Cn1c(-c2ccncc2SC(C)(C)C)nc2cc(C(F)(F)F)cnc21` [present active compound 107] had a pest or weed control at 500 ppm in the assay on Bemisia tabaci of at least 90%.

For `CNS(=O)(=O)c1cnccc1-c1nc2cc(C(F)(F)F)cnc2n1C` [present active compound 117], the pest or weed control at 500 ppm with Bemisia tabaci and in the assay with Aphis gossypii [3] was at least 90% each time.

Take `Cn1c(-c2ccncc2C#N)nc2cc(C(F)(F)F)cnc21` [present active compound 118]: the pest or weed control at 500 ppm with Bemisia tabaci and in the assay with Aphis gossypii [3] was at least 90% in each case.

In the assay with Bemisia tabaci, `CCn1c(-c2ccncc2)nc2ccc(C(F)(F)F)cc21` [present active compound 204, 1-ethyl-2-pyridin-4-yl-6-trifluoromethyl-1H-benzimidazole] displayed a pest or weed control at 500 ppm of at least 90%.

For the molecule `C#Cc1cnccc1-c1nc2cc(C(F)(F)F)cnc2n1C` [present active compound 211, 2-(3-ethynylpyridin-4-yl-)-3-methyl-6-trifluoromethyl-3H-imidazo[4,5-b]pyridine], the pest or weed control at 500 ppm with Nilaparvata lugens was at least 90%.

In the case of `Cn1c(-c2ccncc2C(F)(F)F)nc2cc(C(F)(F)F)cnc21` [present active compound 212, 3-methyl-6-trifluoromethyl-2-(3-trifluoromethylpyridin-4-yl-)-3H-imidazo[4,5-b]pyridine], in the assay with Nilaparvata lugens, the pest or weed control at 500 ppm was at least 90%.
